The values that follow are results of earlier work, collected in PubChem BioAssay AID1259410 (Chemical Carcinogenesis Research Information System (CCRIS), 2018).

SMILES strings stand for the structures.

The subject of this data set is rodent tumor promotion studies, tumor incidence. The experiment in a line: CCRIS tumor promotion studies.

For the compound `O=P(O)(O)O`, the outcome is listed as “urinary bladder: papilloma” (Carcinogen: N-BUTYL-N-(4-HYDROXYBUTYL)NITROSAMINE, 3817-11-6, Doses [Carcinogen]: 0.05% IN DRINKING WATER FOR 4 WK, Doses [Promoter]: 0, 1.4% IN DIET FOR 32 WK BEGINNING POST CARCINOGEN TREATMENT (STUDY DURATION: 36 WK), Route [Carcinogen]: ORAL, Route [Promoter]: ORAL, Species: RAT, Strain/Sex: F344/MALE); “kidney: renal cell tumor” (Carcinogen: N-ETHYL-N-HYDROXYETHYLNITROSAMINE, 13147-25-6, Doses [Carcinogen]: 1000 PPM IN DIET FOR 2 WK, Doses [Promoter]: 0, 10% IN DIET OF UNILATERALLY NEPHRECTOMIZED RATS BEGINNING POST CARCINOGEN TREATMENT AND CONTINUING FOR 18 WK (STUDY D, Route [Carcinogen]: ORAL, Route [Promoter]: ORAL, Species: RAT, Strain/Sex: WISTAR/MALE); “kidney: renal cell tumor” (Carcinogen: N-ETHYL-N-HYDROXYETHYLNITROSAMINE, 13147-25-6, Doses [Carcinogen]: 1000 PPM IN DIET FOR 2 WK, Doses [Promoter]: 0, 50000 PPM IN DIET FOR 18 WK ADMINISTERED TO UNILATERALLY NEPHRECTOMIZED RATS (STUDY DURATION: 20 WK), Route [Carcinogen]: ORAL, Route [Promoter]: ORAL, Species: RAT, Strain/Sex: WISTAR/MALE).

With `Clc1ccc(C(c2ccc(Cl)cc2)C(Cl)(Cl)Cl)cc1`, the outcome runs as follows: (Carcinogen: 2-(ACETYLAMINO)FLUORINE, Doses [Carcinogen]: DIET, Doses [Promoter]: IN DIET, Route [Carcinogen]: ORAL, Route [Promoter]: ORAL, Species: RAT, Strain/Sex: MALE) “liver”; (Carcinogen: N-METHYL-N'-NITRO-N-NITROSOGUANIDINE, 70-25-7, Doses [Carcinogen]: 50 PPM FOR 60 MIN, Doses [Promoter]: 0, 100 PPM IN DIET BEGINNING 14 WK POST CARCINOGEN DOSE (STUDY DURATION: 12 MO), Route [Carcinogen]: IMMERSION, Route [Promoter]: ORAL, Species: FISH, Strain/Sex: RAINBOW TROUT) “liver: tumor”; (Carcinogen: N-NITROSODIETHYLAMINE, 55-18-5, Doses [Carcinogen]: 90 MG/KG BW ONCE, Doses [Promoter]: 0, 300 PPM IN DIET FOR 53 WK BEGINNING 2 WK POST CARCINOGEN DOSE (STUDY DURATION: 55 WK), Route [Carcinogen]: INTRAPERITONEAL, Route [Promoter]: ORAL, Species: MOUSE, Strain/Sex: D2B6F1/MALE) “liver: hepatocellular adenoma, hepatocellular carcinoma”; (Doses [Carcinogen]: 0.5 PPM FOR 30 MIN, Doses [Promoter]: 0, 100 PPM IN DIET BEGINNING 14 WK POST CARCINOGEN DOSE (STUDY DURATION: 12 MO), Route [Carcinogen]: IMMERSION, Route [Promoter]: ORAL, Species: FISH, Strain/Sex: RAINBOW TROUT) “liver: tumor”; (Doses [Carcinogen]: 50 UG 2/WK FOR WK 1-4 OF STUDY THEN 75 UG 2/WK FOR WK 5-8, Doses [Promoter]: 0, 7.5 MG 2/WK FOR 14 WK BEGINNING 1 WK POST CARCINOGEN TREATMENT (STUDY DURATION: 1 YR), Route [Carcinogen]: GAVAGE, Route [Promoter]: GAVAGE, Species: RAT, Strain/Sex: WISTAR/MALE) “liver: carcinoma”; (Doses [Carcinogen]: 50 UG 2/WK FOR WK 1-4 OF STUDY THEN 75 UG 2/WK FOR WK 5-8, Doses [Promoter]: 0, 7.5 MG 2/WK FOR 14 WK BEGINNING 3 WK POST CARCINOGEN TREATMENT (STUDY DURATION: 1 YR), Route [Carcinogen]: GAVAGE, Route [Promoter]: GAVAGE, Species: RAT, Strain/Sex: WISTAR/MALE) “liver: carcinoma”.

As to `C=C(/C=C/C=C(/CO)[C@@H]1CC[C@]2([C@H](CCCO)/C(=C(/C)C=O)CC[C@]2(C)O)[C@@H]1O)CCC=C(C)C`, the outcome (Carcinogen: 7,12-DIMETHYLBENZ[A]ANTHRACENE, 57-97-6, Doses [Carcinogen]: 100 UG ONCE, Doses [Promoter]: 0, 400 NMOL 2/WK FOR 19 WK BEGINNING 1WK POST CARCINOGEN DOSE (STUDY DURATION: 20 WK), Route [Carcinogen]: DERMAL, Route [Promoter]: DERMAL, Species: MOUSE, Strain/Sex: CD-1/FEMALE) is given as “skin: tumor”.

As to `N#CS`, the outcome (Carcinogen: N-BIS(2-HYDROXYPROPYL)NITROSAMINE, 53609-64-6, Doses [Carcinogen]: 280 MG/100 G/BW ONCE, Doses [Promoter]: 0, 0.5% IN DRINKING WATER FOR 25 WK (STUDY DURATION: 26 WK), Route [Carcinogen]: SUBCUTANEOUS, Route [Promoter]: ORAL, Species: RAT, Strain/Sex: F344/MALE) is on record as “thyroid: neoplasm”.

`O=C1OC(O)C(C(Cl)Cl)=C1Cl` (stereo not drawn): the outcome (Carcinogen: N-METHYL-N'-NITRO-N-NITROSOGUANIDINE [70-25-7], SODIUM CHLORIDE [7647-14-5], Doses [Carcinogen]: 100 PPM MNNG IN DRINKING WATER FOR 8 WK, 5% SODIUM CHLORIDE IN DIET FOR 8 WK (STUDY DURATION: 65 WK), Doses [Promoter]: 30 PPM IN DRINKING WATER FOR 53 WK BEGINNING POST LAST CARCINOGEN DOSE (STUDY DURATION: 65 WK), Route [Carcinogen]: ORAL, ORAL, Route [Promoter]: ORAL, Species: RAT, Strain/Sex: WISTAR/MALE) is “glandular stomach: adenocarcinoma”.

As for `Oc1ccc(Br)cc1`, the outcome (Carcinogen: 7,12-DIMETHYLBENZ(A)ANTHRACENE, Doses [Carcinogen]: TOP, Route [Carcinogen]: DERMAL, Route [Promoter]: DERMAL, Species: MOUSE, Strain/Sex: FEMALE) is given as “integumentary system (skin)”.
